Assay results published in ChEMBL document CHEMBL1136799, “Design and synthesis of pyrrolidine-5,5'-trans-lactams (5-oxo-hexahydropyrrolo[3,2-b]pyrroles) as novel mechanism-based inhibitors of human cytomegalovirus protease. 4. Antiviral activity and plasma stability” (J Med Chem, 2003).

Columns and labels:
[1] = target: T1, Capsid scaffolding protein (Human cytomegalovirus (strain AD169) (HHV-5) (Human herpesvirus 5), UniProt P16753); test: Inhibition of human cytomegalovirus protease in HCMV pNA assay.; parameters: species or system Human herpesvirus 5 strain AD169
T1 sequence (P16753 whole entry): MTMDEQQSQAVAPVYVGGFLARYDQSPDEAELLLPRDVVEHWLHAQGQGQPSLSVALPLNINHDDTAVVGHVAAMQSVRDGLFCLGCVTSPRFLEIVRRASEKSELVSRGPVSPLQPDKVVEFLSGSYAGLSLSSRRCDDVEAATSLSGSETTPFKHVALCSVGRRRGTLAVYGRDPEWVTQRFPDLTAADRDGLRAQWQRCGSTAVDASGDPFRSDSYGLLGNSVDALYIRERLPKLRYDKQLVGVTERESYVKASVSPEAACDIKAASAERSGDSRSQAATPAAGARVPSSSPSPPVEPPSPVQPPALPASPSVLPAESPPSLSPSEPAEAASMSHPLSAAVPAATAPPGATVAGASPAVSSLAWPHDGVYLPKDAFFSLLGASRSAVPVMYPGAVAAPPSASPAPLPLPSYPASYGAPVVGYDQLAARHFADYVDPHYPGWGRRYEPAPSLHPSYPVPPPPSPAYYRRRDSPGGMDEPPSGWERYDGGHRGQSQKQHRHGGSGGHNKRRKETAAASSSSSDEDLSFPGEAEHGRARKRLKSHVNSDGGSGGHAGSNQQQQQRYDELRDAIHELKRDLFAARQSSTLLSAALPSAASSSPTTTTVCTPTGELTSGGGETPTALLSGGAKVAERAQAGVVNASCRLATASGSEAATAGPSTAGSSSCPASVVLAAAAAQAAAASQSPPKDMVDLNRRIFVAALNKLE

[2] = target: T1, Capsid scaffolding protein; test: Potency against human cytomegalovirus protease in HCMV pNA assay; parameters: species or system Human herpesvirus 5 strain AD169
[3] = tested on: Human betaherpesvirus 5; test: Concentration required to inhibit human cytomegalovirus HCMV-AD169 in antiviralplaque reduction assay; assay type: functional, organism-based
[4] = tested on: Vero; test: Growth inhibition of cytomegalovirus in Vero cells; assay type: functional, Human betaherpesvirus 5
[5] = Compound was tested for its stability in human plasma; assay type: ADME, organism-based

SMILES | IC50 [1] [nM] | Ki [2] [nM] | IC50 [3] [nM] | CCID50 [4] [µM] | half-life [5] [h]
C[C@@H]1C(=O)N(C(=O)C2CC2)[C@H]2CCN(C(=O)[C@@H]3CCCN3S(=O)(=O)c3cccc4ccccc34)[C@H]12 | 370 | 60 | – | – | –
Nc1nc2c(ncn2COC(CO)CO)c(=O)[nH]1 [GANCICLOVIR] | – | – | 720 | >500 | –
CC(C)Oc1ccc(S(=O)(=O)N2CCC[C@H]2C(=O)N2CC[C@H]3[C@H]2[C@H](C)C(=O)N3C(=O)C2CC2)cc1 | 400 | 39 | – | – | –
COc1cccc2sc(N3C(=O)[C@@H](C)[C@@H]4[C@@H]3CCN4C(=O)[C@@H]3CCCN3C(=O)Nc3ccc(C(C)C)cc3)nc12 | 240 | – | 5200 | 89 | –
CCCOc1ccc(-c2ccc(C(=O)N3CCC[C@H]3C(=O)N3CC[C@H]4[C@H]3[C@H](C)C(=O)N4C(=O)C3CC3)cc2)cc1 | – | 79 | – | – | –
CC(C)c1ccc(NC(=O)N2CCC[C@H]2C(=O)N2CC[C@H]3[C@H]2[C@H](C)C(=O)N3C(=O)C2C(C)(C)C2(C)C)cc1 | > 20000 | – | > 35000 | 38 | 16
C[C@@H]1C(=O)N(C(=O)C2CC2)[C@H]2CCN(C(=O)[C@@H]3CCCN3C(=O)Nc3ccc(Cl)cc3)[C@H]12 | 260 | 38 | – | – | –
CC(C)Oc1ccc(NC(=O)N2CCC[C@H]2C(=O)N2CC[C@H]3[C@H]2[C@H](C)C(=O)N3C(=O)C2CC2)cc1 | 180 | 18 | – | – | –
C[C@@H]1C(=O)N(C(=O)C2CC2)[C@H]2CCN(C(=O)[C@@H]3CCCN3S(=O)(=O)c3ccccc3)[C@H]12 | 1800 | – | – | – | –
COc1ccc2nc(N3C(=O)[C@@H](C)[C@@H]4[C@@H]3CCN4C(=O)[C@@H]3CCCN3C(=O)Nc3ccc(C(C)C)cc3)sc2c1 | 220 | 43 | 3200 | >500 | –
CC(C)c1ccc(S(=O)(=O)N2CCC[C@H]2C(=O)N2CC[C@H]3[C@H]2[C@H](C)C(=O)N3C(=O)C2CC2)cc1 | 460 | 99 | – | – | –
C[C@@H]1C(=O)N(C(=O)C2CC2)[C@H]2CCN(C(=O)[C@@H]3CCCN3C(=O)c3ccc(Cl)cc3)[C@H]12 | 1400 | – | – | – | –
CC(C)c1ccccc1NC(=O)N1CCC[C@H]1C(=O)N1CC[C@H]2[C@H]1[C@H](C)C(=O)N2C(=O)C1CC1 | 470 | – | – | – | –
C[C@@H]1C(=O)N(C(=O)C2CC2)[C@H]2CCN(C(=O)[C@@H]3CCCN3C(=O)Nc3ccc(C(F)(F)F)cc3)[C@H]12 | 230 | 15 | – | – | –
CCCOc1ccc(-c2ccc(S(=O)(=O)N3CCC[C@H]3C(=O)N3CC[C@H]4[C@H]3[C@H](C)C(=O)N4C(=O)C3CC3)cc2)cc1 | – | 33 | – | – | –
C[C@@H]1C(=O)N(C(=O)C2CC2)[C@H]2CCN(C(=O)[C@@H]3CCCN3C(=O)Nc3cccc(C(F)(F)F)c3)[C@H]12 | 590 | – | – | – | –
CC(C)c1ccc(NC(=O)N2CCC[C@H]2C(=O)N2CC[C@H]3[C@H]2[C@H](C)C(=O)N3c2nc3cc(Cl)ccc3s2)cc1 | 460 | – | 49000 | 266 | –
CCCOc1ccc(-c2ccc(NC(=O)N3CCC[C@H]3C(=O)N3CC[C@H]4[C@H]3[C@H](C)C(=O)N4C(=O)C3CC3)cc2)cc1 | – | 9 | – | – | –
C[C@@H]1C(=O)N(C(=O)C2CC2)[C@H]2CCN(C(=O)[C@@H]3CCCN3C(=O)Nc3ccc(-c4ccc(Cl)cc4)cc3)[C@H]12 | 260 | – | – | – | –
Cc1c(C(=O)N2CCC[C@H]2C(=O)N2CC[C@H]3[C@H]2[C@H](C)C(=O)N3C(=O)C2CC2)sc2ccc(Cl)cc12 | 190 | 2 | – | – | –

SMILES | IC50 [1] [nM] | Ki [2] [nM] | IC50 [3] [nM] | CCID50 [4] [µM] | half-life [5] [h]
COc1ccc2sc(N3C(=O)[C@@H](C)[C@@H]4[C@@H]3CCN4C(=O)[C@@H]3CCCN3C(=O)Nc3ccc(C(C)C)cc3)nc2c1 | 230 | – | 2400 | >500 | –
CCCOc1ccc(S(=O)(=O)N2CCC[C@H]2C(=O)N2CC[C@H]3[C@H]2[C@H](C)C(=O)N3C(=O)C2CC2)cc1 | 230 | 33 | – | – | –
C[C@@H]1C(=O)N(C(=O)C2CC2)[C@H]2CCN(C(=O)[C@@H]3CCCN3S(=O)(=O)c3ccc(Cl)cc3)[C@H]12 | 840 | – | – | – | –
CC(C)c1ccc(NC(=O)N2CCC[C@H]2C(=O)N2CC[C@H]3[C@H]2[C@H](C)C(=O)N3c2nc3cc(S(=O)(=O)C(F)F)ccc3s2)cc1 | 210 | – | 2200 | >500 | –
CCCOc1ccc(NC(=O)N2CCC[C@H]2C(=O)N2CC[C@H]3[C@H]2[C@H](C)C(=O)N3C(=O)C2CC2)cc1 | 210 | 9 | – | – | –
C[C@@H]1C(=O)N(C(=O)C2CC2)[C@H]2CCN(C(=O)[C@@H]3CCCN3C(=O)c3cccc4ccccc34)[C@H]12 | 890 | – | – | – | –
C[C@@H]1C(=O)N(C(=O)C2CC2)[C@H]2CCN(C(=O)[C@@H]3CCCN3C(=O)Nc3ccccc3)[C@H]12 | 1400 | – | – | – | –
C[C@@H]1C(=O)N(C(=O)C2CC2)[C@H]2CCN(C(=O)[C@@H]3CCCN3S(=O)(=O)c3cccc4cc(N(C)C)ccc34)[C@H]12 | 1100 | – | – | – | –
CC(C)c1ccc(C(=O)N2CCC[C@H]2C(=O)N2CC[C@H]3[C@H]2[C@H](C)C(=O)N3C(=O)C2CC2)cc1 | 390 | – | – | – | –
CC(C)c1ccc(NC(=O)N2CCC[C@H]2C(=O)N2CC[C@H]3[C@H]2[C@H](C)C(=O)N3c2nc3ccc(F)cc3s2)cc1 | 360 | – | 12300 | 298 | > 24
C[C@@H]1C(=O)N(C(=O)C2CC2)[C@H]2CCN(C(=O)[C@@H]3CCCN3C(=O)Nc3cccc(Cl)c3)[C@H]12 | 650 | – | – | – | –
C[C@@H]1C(=O)N(C(=O)C2CC2)[C@H]2CCN(C(=O)[C@@H]3CCCN3C(=O)c3ccc(-c4ccccc4)cc3)[C@H]12 | 300 | 21 | – | – | –
C[C@@H]1C(=O)N(C(=O)C2CC2)[C@H]2CCN(C(=O)[C@@H]3CCCN3S(=O)(=O)c3ccc(-c4ccc(Cl)cc4)cc3)[C@H]12 | 840 | – | – | – | –
C[C@@H]1C(=O)N(C(=O)C2CC2)[C@H]2CCN(C(=O)[C@@H]3CCCN3C(=O)Nc3cccc4ccccc34)[C@H]12 | 650 | – | – | – | –
CC(C)c1ccc(NC(=O)N2CCC[C@H]2C(=O)N2CC[C@H]3[C@H]2[C@H](C)C(=O)N3C(=O)C2[C@@H](C)[C@H]2C)cc1 (stereo not given in full) | 1800 | – | > 30000 | 375 | 1.5
C[C@@H]1C(=O)N(C(=O)C2CC2)[C@H]2CCN(C(=O)[C@@H]3CCCN3C(=O)c3ccc(-c4ccc(Cl)cc4)cc3)[C@H]12 | 1400 | – | – | – | –
C[C@@H]1C(=O)N(C(=O)C2CC2)[C@H]2CCN(C(=O)[C@@H]3CCCN3S(=O)(=O)c3ccc4ccccc4c3)[C@H]12 | < 190 | 40 | – | – | –
CCCOc1ccc(C(=O)N2CCC[C@H]2C(=O)N2CC[C@H]3[C@H]2[C@H](C)C(=O)N3C(=O)C2CC2)cc1 | 540 | 79 | – | – | –
CC(C)c1ccc(NC(=O)N2CCC[C@H]2C(=O)N2CC[C@H]3[C@H]2[C@H](C)C(=O)N3c2nc3c(Cl)cccc3s2)cc1 | 290 | – | 17100 | >500 | –
C[C@@H]1C(=O)N(C(=O)C2CC2)[C@H]2CCN(C(=O)[C@@H]3CCCN3S(=O)(=O)Cc3ccccc3)[C@H]12 | 2100 | – | – | – | –
